Measurements as given in patent US5457106A, “Pyridine derivatives, their production and use” (Takeda Chemical Industries, Ltd., priority 1991, dated 1995).
Structures can show the parent of a compound that is named as a salt. Where two headings read alike, the source gives them in different places.

Assays:
[1] = system: Mouse acetic acid writhing; assay: Mouse acetic acid writhing inhibitory activity; type: in vivo, mouse (Slc: ICR); settings: orally; for Inhibitory percentage (acetic acid writhing): 50 mg/kg, hydrochloride; for inhibition in vivo at 50 mg/kg: Mus musculus, po, 20 min, read-out: Inhibitory percentage (acetic acid writhing)
Experimental: Mouse Acetic Acid Writhing Inhibitory Activity
Ten male Slc: ICR mice, 4 weeks old, per 1 group were used. A test compound was administered orally, and after 30 minutes, 0.1 ml/10 g body weight of physiological saline containing 0.6% acetic acid was injected intraperitoneally. For 20 minutes, writhing (in agony condition) response by administration of acetic acid was counted regarding individual animals. The inhibitory percentage relative to the mean response counts of a control group was calculated regarding respective animals in a test compound administration group. The test compound was suspended in 5% gum arabic solution, and the administration volume was 0.2 ml/10 g.

5-Lipoxygenase = biological target: T1, 5-Lipoxygenase (Rattus norvegicus, UniProt P12527); assay: 5-Lipoxygenase inhibitory activity in rat basophilic leukemia cells; type: cell-based
T1 construct: rat basophilic leukemia cell suspension; endogenous in cells
T1 sequence (P12527 1-673): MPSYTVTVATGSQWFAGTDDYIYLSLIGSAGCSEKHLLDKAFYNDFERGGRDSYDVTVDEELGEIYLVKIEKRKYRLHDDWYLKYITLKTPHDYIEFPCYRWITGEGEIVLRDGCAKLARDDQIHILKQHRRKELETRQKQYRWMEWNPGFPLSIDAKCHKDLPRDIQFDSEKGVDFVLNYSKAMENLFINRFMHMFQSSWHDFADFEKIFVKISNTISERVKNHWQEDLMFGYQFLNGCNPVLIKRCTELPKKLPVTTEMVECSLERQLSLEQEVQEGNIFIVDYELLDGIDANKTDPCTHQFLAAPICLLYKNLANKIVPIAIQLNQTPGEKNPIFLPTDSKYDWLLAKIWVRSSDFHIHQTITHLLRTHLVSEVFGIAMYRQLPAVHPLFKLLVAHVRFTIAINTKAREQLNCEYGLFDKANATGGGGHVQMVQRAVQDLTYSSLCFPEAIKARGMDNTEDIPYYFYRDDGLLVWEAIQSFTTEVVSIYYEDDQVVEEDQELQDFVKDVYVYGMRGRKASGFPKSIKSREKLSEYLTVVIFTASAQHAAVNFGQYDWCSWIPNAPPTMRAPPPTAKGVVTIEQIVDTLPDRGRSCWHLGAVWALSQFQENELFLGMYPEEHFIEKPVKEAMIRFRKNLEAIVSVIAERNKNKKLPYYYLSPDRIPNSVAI
Experimental: 5-Lipoxygenase Inhibitory Activity […] Then, 0.1 ml of mast cell medium containing 50 μg of arachidonic acid and 1 μg of calcium ionophore (A-23187) were added and the mixture was allowed to stand at 37° C. for 15 minutes. Ethanol (1 ml) was added thereto and the mixture was shaken well, and filtered (Membrane filter, 0.45 μm). […] As a control, the measurement was carried out according to the same manner except that 0.01 ml of the solvent used for dissolving the test compound was used in place of the test compound. The inhibitory percentage (%) was calculated from the following equation to obtain IC50.

[2] = system: Mouse phenylquinone writhing; assay: Mouse phenylquinone writhing inhibitory activity; type: in vivo, mouse (Slc: ICR); settings: Mus musculus, po, 20 min, orally, read-out: Inhibitory percentage (phenylquinone writhing)
In short: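 Male ICR mice (4 weeks, 17–24 g) dosed orally with compound suspended in 5% gum arabic. After 30 min, 0.02% phenylquinone (0.1 ml/10 g) given i.p.; writhing and stretching responses counted over 20 min.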

[3] = system: Rat carrageenin pedal edema; assay: Rat carrageenin pedal edema inhibitory activity; type: in vivo, rat (Jcl: SD); settings: Rattus norvegicus, po, 3 h, 50 mg/kg, orally, 3 hours after carrageenin; read-out: Inhibitory percentage (carrageenin pedal edema)
Experimental: Rat Carrageenin Pedal Edema Inhibitory Activity A Jcl: SD male rat (6 weeks old, weight 160-220 g) was used. After the mesurement of the volume of the dexter hind limb foot pad, a test compound suspended in 5% gum arabic solution was administered orally. Immediately after the administration, water was further administered orally so that the total administration volume of liquid became 5 ml/rat. After one hour, 0.05 ml of 1% carrageenin suspension in physiological saline was injected subcutaneously in the foot pad to induce edema [Winter, […]. and Nuss, G. W.: Proc. Soc. exp. […] Three hours after injection of carrageenin, the volume of the dexter limb was measured, and the edema volume was calculated by the difference between the volume after injection and the volume prior to injection.

[4] = system: ART (antigen-responding T-cell); assay: In vitro ART (antigen-responding T-cell) proliferation test; type: cell-based, Lewis rat; settings: Rattus norvegicus, T-cell, read-out: % Inhibition of ART growth
cyclooxygenase = biological target: T2, cyclooxygenase (Rattus norvegicus, UniProt Q63921); assay: Cyclooxygenase inhibitory activity (HHT formation from arachidonic acid in rat platelet-rich plasma); type: cell-based, rat (Jcl:wistar)
T2 construct: from tissue; host or cells: platelets in platelet-rich plasma from rat abdominal aorta blood (Jcl:wistar, male)
T2 sequence (Q63921 27-602): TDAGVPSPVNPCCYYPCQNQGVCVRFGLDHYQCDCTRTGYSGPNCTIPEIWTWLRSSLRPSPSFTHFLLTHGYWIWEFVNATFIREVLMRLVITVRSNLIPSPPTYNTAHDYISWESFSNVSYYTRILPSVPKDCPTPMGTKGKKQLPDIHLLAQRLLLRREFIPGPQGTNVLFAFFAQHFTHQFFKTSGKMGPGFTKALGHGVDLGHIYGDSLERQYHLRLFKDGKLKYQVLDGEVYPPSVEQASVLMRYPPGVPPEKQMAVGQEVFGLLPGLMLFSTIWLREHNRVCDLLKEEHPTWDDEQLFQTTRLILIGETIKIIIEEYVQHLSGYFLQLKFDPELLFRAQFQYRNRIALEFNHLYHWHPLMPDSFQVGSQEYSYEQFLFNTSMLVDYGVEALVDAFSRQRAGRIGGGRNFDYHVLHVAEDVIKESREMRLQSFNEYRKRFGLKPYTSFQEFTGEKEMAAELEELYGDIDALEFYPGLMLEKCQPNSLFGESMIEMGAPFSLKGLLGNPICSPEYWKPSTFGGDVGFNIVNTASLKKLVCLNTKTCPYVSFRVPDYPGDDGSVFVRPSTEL

ICAM-1 = assay: Adhesion protein expression inhibitory activity, ICAM-1; type: cell-based; settings: human umbilical vascular endothelial cells, TNF-α, 360 min
Experimental: Adhesion Protein Expression Inhibitory Activity The various concentrations of test compounds were added to the human umbilical cord-derived vascular endothelial cells [sold by Klabo] which were seeded in the gelatin coat plate and the mixture was incubated at 37° C. for 15 minutes. Then, the human tumor necrosis factor-α[TNF-α; sold by Genzyme] was added therein to the final concentration of 1 ng/ml and incubation was carried out at 37° C. for 3 hours for expression of ELAM-1 and for 6 hours for that of ICAM-I. After the reaction, the cells were fixed using glutaraldhyde and the expression amount of ELAM-1 and ICAM-1 was measured by the cell-ELISA method. That is, the expression was determined by […] the adhesion proteins on the cells in the system using anti-ELAM-1 antibody BBA-2 and anti-ICAM-1 antibody BBA4 as the first antibody as well as horseradish peroxidase-labeled rabbit anti-mouse IgG antibody as the second antibody.

[5] = 5-HETE, read-out: 5-Lipoxygenase inhibitory activity, 5-HETE IC50
[6] = LTB4, read-out: 5-Lipoxygenase inhibitory activity, LTB4 IC50

SMILES	IC50 (5-Lipoxygenase; [5]) [µM]	IC50 (5-Lipoxygenase; [6]) [µM]	inhibition at 1 µM [4] [%]	inhibition at 10 µM [4] [%]	further results
CC1(C)OC(=O)N(CSc2ccncc2)C1=O [Example 179, 4-(5,5-dimethyloxazolidine-2,4-dionemethylthio)pyridine hydrochloride]					Inhibitory percentage (acetic acid writhing) [1]: 66%
O=C(NCCCCSc1ccncc1)c1cc2ccccc2s1 [Example 128, 4-[4-(thianaphthene-2-carbonylamino)butylthio]pyridine]	6.1	5.4			
CCCCCCCC/C=C\CCCCCCCC(=O)NCCCSc1ccncc1 [Example 21, 4-[3-(oleoylamino)propylthio]pyridine]	21.5	16.4			
CCCCCCCCCC(=O)NCCCSc1ccccn1 [Example 3, 2-[3-(caprylamino)propylthio]pyridine]	22.2	17.5			
O=C1CSC(=O)N1CSc1ccncc1 [Example 176, 4-(2,4-thiazolidinedionemethylthio)pyridine hydrochloride]					Inhibitory percentage (acetic acid writhing) [1]: 87%
O=C1c2ccccc2CN1CCCCSc1ccncc1 [Example 109, 4-[4-(isoindolin-1-on-2-yl)butylthio]pyridine]	1.4	1.2	-11	-33	inhibition in vivo at 50 mg/kg [2]: 89%; inhibition in vivo at 50 mg/kg [3]: 25%; IC50 (cyclooxygenase): 6200 nM
O=C1SC(=Cc2ccccc2)C(=O)N1CCSc1ccncc1 [Example 155, 4-[2-(5-benzylidene-2,4-thiazolidinedione)ethylthio]pyridine]	3.8	3.7	4	78	
CC1(C)OC(=O)N(CCCCSc2ccncc2)C1=O [Example 167, 4-(4-(5,5-dimethyloxazolidine-2,4-dione)butylthio]pyridine]					inhibition in vivo at 50 mg/kg [1]: 62%
O=C(c1cc2ccccc2s1)N1CCC(Sc2ccncc2)CC1 [Example 133, 4-[4-(thianaphthene-2-carbonyl)piperidylthio]pyridine]	4.6	4.3			inhibition in vivo at 50 mg/kg [3]: 27%
O=c1c2ccccc2oc(=S)n1CCSc1ccncc1 [Example 170, 4-[2-[2H-1,3-benzoxadine-2-thion-4(3H)-on]ethylthio]pyridine]					inhibition in vivo at 50 mg/kg [1]: 91%
O=c1c2ccccc2n(CCCCSc2ccccn2)c(=O)n1CCCCSc1ccccn1 [Example 198, 1,3-bis[4-(2-pyridylthio)butyl]quinazoline-2,4(1H,3H)-dione]					Expression Inhibitory Potency, ICAM-1 (ICAM-1; 13 μM): 25%
CCCCCCCCCCCC(=O)NCCCSc1ccncc1 [Example 17, 4-[3-(lauroylamino)propylthio]pyridine]	17.5	14.3			IC50 (cyclooxygenase): 1500 nM
O=C(NCCSc1ccncc1)c1cc2ccccc2s1 [Example 123, 4-[2-(thianaphthene-2-carbonylamino)ethylthio]pyridine]			15	66	IC50 (cyclooxygenase): 3300 nM; Expression Inhibitory Potency, ICAM-1 (ICAM-1; 30 μM): 34%
O=C1c2ccc([N+](=O)[O-])cc2C(=O)N1CSc1ccncc1 [Example 95, 4-[(4-nitrophthalimido)methylthio]pyridine]	0.044	0.033	20	32	
O=C1SC(=Cc2ccc(Cl)cc2)C(=O)N1CCCCSc1ccncc1 [Example 151, 4-[4-[5-(4-chlorobenzylidene)-2,4-thiazolidinedione]butylthio]pyridine]	1.8	1.1	-1	74	Expression Inhibitory Potency, ICAM-1 (ICAM-1; 30 μM): 60%
O=C1c2ccccc2C(=O)N1CCSc1ccccn1 [Example 4, 2-(2-phthalimidoethylthio)pyridine]	17.4	11.8			
CCCCCCCCCC(=O)NCCCSc1ccncc1 [Example 1]	16.8	16.1			inhibition in vivo at 100 mg/kg ([2]; 100 mg/kg): 61%; IC50 (cyclooxygenase): 1600 nM
O=C(c1ccccc1)N(CCCSc1ccncc1)Cc1ccccc1 [Example 77, 4-[3-(N-benzyl-N-benzoylamino)propylthio]pyridine hydrochloride]	3.5	3.2	28	85	inhibition in vivo at 50 mg/kg [2]: 62%
CCCCCCCCCCCCN(CCCSc1ccncc1)C(=O)C(F)(F)F [Example 94, 4-[3-(N-dodecyl-N-trifluoroacetylamino)propylthio]pyridine]	2.4	2	33	70	
O=c1c2ccccc2n(Cc2ccccc2)c(=O)n1CCCCSc1ccncc1 [Example 149, 3-[4-(4-pyridylthio)butyl]-1-benzylquinazolin-2,4-(1H,3H)-dione]	2.3	2.2	-10	19	
